How the values were obtained:
ALDH3A1 = biological target: T1, ALDH3A1 (Homo sapiens, UniProt P30838); test: ALDH3A1 dehydrogenase activity; assay type: biochemical; conditions: read-out: IC50 ALDH3A1; 300 μM benzaldehyde, 300 μM NADP+, pH 7.5
T1 sequence (P30838 1-453): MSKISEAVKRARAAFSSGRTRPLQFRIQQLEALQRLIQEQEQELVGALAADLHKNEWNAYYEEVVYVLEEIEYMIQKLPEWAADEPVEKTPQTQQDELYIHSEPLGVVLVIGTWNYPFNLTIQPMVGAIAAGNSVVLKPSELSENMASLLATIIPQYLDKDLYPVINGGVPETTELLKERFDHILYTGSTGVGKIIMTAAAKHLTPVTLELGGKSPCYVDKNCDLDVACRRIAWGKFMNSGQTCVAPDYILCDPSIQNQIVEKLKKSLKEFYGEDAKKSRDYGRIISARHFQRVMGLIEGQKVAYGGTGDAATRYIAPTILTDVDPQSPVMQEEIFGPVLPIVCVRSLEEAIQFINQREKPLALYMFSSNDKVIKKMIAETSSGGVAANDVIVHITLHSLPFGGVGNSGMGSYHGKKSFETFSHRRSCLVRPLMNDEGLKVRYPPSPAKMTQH

ALDH1L1 (rat) = biological target: T2, ALDH1L1 (rat) (Rattus norvegicus, UniProt P28037); test: ALDH1L1 dehydrogenase activity, NADPH formation at 340 nm; assay type: biochemical; conditions: read-out: IC50 ALDH1L1 (rat); 4 mM propionaldehyde, 500 μM NADP+
T2 sequence (P28037 1-902): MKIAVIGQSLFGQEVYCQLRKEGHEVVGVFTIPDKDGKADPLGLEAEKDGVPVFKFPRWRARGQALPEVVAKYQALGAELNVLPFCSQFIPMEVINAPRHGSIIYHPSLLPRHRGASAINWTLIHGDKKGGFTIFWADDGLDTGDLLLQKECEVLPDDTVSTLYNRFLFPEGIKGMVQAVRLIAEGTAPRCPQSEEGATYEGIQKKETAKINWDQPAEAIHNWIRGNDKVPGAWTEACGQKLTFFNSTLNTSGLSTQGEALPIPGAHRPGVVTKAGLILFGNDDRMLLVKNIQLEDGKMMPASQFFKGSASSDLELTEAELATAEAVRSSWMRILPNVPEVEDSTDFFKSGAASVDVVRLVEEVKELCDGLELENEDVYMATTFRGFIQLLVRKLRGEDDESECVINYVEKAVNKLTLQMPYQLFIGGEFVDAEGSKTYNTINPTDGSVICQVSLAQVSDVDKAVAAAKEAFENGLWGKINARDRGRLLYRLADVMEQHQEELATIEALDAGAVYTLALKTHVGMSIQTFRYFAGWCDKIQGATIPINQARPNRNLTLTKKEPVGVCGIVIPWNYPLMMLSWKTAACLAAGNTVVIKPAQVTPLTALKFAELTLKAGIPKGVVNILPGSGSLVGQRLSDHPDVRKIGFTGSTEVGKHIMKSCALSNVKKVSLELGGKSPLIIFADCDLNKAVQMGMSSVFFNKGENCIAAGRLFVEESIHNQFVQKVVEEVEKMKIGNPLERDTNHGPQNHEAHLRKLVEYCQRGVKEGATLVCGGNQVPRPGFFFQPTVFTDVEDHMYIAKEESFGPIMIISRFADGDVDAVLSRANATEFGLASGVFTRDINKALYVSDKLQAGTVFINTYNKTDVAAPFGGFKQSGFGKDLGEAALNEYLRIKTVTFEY

ALDH2 [1] = biological target: T3, ALDH2 (Homo sapiens, UniProt P05091); conditions: 1 mM propionaldehyde
T3 sequence (P05091 18-517): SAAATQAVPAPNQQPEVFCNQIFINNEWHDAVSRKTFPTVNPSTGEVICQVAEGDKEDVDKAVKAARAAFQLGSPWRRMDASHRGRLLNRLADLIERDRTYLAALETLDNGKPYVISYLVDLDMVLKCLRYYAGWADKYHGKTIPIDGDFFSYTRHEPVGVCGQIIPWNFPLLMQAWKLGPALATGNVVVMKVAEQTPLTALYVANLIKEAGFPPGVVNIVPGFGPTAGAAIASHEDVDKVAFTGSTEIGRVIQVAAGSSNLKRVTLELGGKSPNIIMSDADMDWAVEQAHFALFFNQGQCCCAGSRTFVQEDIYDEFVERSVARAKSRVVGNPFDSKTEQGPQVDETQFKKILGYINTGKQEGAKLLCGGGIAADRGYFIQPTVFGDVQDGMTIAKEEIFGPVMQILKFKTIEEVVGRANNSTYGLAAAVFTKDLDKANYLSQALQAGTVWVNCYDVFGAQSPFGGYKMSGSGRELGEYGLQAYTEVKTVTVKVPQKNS

ALDH2 [2] = biological target: T3, ALDH2; conditions: prior work; cited from earlier work
ALDH1A1 [3] = biological target: T4, ALDH1A1 (Homo sapiens, UniProt P00352); test: ALDH1A1 dehydrogenase activity, NADH formation at 340 nm; assay type: biochemical; conditions: for IC50: read-out: IC50 ALDH1A1, 100 μM propionaldehyde, 200 μM NAD+, 1% DMSO, pH 7.5, 25 °C; for inhibition at 10 µM: read-out: Inhibition of ALDH1A1 at 10 μM
T4 sequence (P00352 1-501): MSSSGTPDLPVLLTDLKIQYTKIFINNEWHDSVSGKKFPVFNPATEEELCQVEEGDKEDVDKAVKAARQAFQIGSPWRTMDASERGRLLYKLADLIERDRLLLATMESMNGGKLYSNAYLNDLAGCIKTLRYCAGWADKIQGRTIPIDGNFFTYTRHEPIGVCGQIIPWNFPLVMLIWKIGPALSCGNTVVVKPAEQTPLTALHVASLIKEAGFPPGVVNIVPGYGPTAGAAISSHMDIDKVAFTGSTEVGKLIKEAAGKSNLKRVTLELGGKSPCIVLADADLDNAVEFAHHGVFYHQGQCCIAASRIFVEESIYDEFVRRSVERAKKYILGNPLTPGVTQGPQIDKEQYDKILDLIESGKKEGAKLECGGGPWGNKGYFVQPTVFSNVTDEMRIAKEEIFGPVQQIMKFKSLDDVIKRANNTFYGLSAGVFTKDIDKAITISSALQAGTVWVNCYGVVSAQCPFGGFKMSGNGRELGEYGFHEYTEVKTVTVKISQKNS

ALDH1A1 [4] = biological target: T4, ALDH1A1; conditions: for Mode of inhibition of ALDH1A1 versus varied NAD+: 1 mM propionaldehyde
ALDH2 [5] = biological target: T3, ALDH2; test: ALDH2 dehydrogenase activity, NADH formation at 340 nm; assay type: biochemical; conditions: for Emax: read-out: Max inhibition ALDH2
ALDH1A3 = biological target: T5, ALDH1A3 (Homo sapiens, UniProt P47895); conditions: read-out: IC50 ALDH1A3; 100 μM propionaldehyde, 200 μM NAD+, 1% DMSO, pH 7.5, 25 °C
T5 sequence (P47895 1-512): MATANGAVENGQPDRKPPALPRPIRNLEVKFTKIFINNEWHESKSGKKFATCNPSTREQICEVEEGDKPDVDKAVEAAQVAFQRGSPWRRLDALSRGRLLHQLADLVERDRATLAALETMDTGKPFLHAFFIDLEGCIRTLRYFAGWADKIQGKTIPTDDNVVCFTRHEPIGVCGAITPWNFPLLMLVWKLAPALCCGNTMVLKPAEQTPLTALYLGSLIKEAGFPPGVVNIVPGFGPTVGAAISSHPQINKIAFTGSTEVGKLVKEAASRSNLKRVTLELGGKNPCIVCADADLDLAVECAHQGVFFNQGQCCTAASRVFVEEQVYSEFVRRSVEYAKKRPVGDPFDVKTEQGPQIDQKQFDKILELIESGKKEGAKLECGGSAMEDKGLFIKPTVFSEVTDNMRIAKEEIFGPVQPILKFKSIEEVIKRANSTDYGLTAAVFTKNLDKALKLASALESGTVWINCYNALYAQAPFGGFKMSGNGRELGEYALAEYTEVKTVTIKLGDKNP

ALDH1B1 = biological target: T6, ALDH1B1 (Homo sapiens, UniProt P30837); conditions: read-out: IC50 ALDH1B1; 200 μM propionaldehyde, 500 μM NAD+, 25 °C
T6 sequence (P30837 18-517): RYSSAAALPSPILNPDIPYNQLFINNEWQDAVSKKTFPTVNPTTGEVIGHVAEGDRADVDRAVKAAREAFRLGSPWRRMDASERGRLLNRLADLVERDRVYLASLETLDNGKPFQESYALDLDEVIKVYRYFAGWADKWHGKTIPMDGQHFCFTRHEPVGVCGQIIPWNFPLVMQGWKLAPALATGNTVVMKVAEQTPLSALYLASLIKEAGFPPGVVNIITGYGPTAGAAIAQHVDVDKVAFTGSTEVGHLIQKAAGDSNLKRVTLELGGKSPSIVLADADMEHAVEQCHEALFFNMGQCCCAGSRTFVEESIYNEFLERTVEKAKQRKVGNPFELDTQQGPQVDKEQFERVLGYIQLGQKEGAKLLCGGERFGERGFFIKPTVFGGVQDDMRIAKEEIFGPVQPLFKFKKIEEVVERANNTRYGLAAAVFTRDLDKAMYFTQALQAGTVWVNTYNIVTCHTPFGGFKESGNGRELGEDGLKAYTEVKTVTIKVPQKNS

ALDH1A2 = biological target: T7, ALDH1A2 (Homo sapiens, UniProt O94788); conditions: read-out: IC50 ALDH1A2; 100 μM propionaldehyde, 200 μM NAD+, 1% DMSO, pH 7.5, 25 °C
T7 sequence (O94788 1-518): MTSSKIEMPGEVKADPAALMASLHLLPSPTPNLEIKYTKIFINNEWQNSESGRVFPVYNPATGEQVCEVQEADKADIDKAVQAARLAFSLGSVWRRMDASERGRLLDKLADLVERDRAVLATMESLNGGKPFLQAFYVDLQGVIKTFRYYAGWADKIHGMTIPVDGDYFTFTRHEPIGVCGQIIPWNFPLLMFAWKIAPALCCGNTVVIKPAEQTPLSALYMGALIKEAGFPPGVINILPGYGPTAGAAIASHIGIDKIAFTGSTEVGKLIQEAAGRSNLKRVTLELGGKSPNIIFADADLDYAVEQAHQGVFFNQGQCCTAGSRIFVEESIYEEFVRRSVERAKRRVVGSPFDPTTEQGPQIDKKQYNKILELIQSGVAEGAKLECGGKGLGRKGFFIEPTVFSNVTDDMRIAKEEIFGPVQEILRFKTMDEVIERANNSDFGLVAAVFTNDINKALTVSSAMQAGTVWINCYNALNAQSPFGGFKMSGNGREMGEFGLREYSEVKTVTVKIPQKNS

| Compound | IC50 (ALDH3A1) [µM] | IC50 (ALDH1L1 (rat)) [µM] | Mode of inhibition of ALDH2 versus varied NAD+ (ALDH2 [1]) | IC50 (ALDH1A1 [3]) [µM] | further results |
| --- | --- | --- | --- | --- | --- |
| CCCc1c(C)c2cc3c(C)c(C)oc3cc2oc1=O [Compound 2] | > 100 | > 100 | competitive |  |  |
| CCCc1c(C)c2cc3c(C)coc3cc2oc1=O [Compound 1] | > 100 | > 100 |  |  |  |
| Cc1c(Cc2ccccc2)c(=O)oc2cc(OS(C)(=O)=O)ccc12 [Compound 34] | > 100 |  |  |  |  |
| Cc1oc2cc3oc(=O)c(C)c(C)c3cc2c1C [Compound 3] | > 100 | > 100 | competitive | > 100 | Mode of inhibition of ALDH2 with respect to varied propionaldehyde (ALDH2 [2]): non-competitive (mixed-type) |
| Cc1oc2cc3oc(=O)c(CCC(=O)N4CCCCC4)c(C)c3cc2c1C [Compound 15] | > 100 |  | competitive |  | Mode of inhibition of ALDH1A1 versus varied NAD+ (ALDH1A1 [4]): uncompetitive; inhibition at 10 µM (ALDH2 [5]; read-out: Inhibition of ALDH2 at 10 μM): > 90%; inhibition at 10 µM (ALDH1A1 [3]): > 90% |
| Cc1oc2cc3oc(=O)c4ccccc4c3cc2c1C [Compound 9] | > 100 |  |  | > 100 | Emax (ALDH2 [5]): 50 to 60% |
| Cc1c(C)c2c(cc(C)c3c(C)coc32)oc1=O [Compound 23] | > 100 |  |  | > 100 | Emax (ALDH2 [5]): 50 to 60% |
| Cc1oc2cc3oc(=O)c4c(c3cc2c1C)CCCC4 [Compound 10] | > 100 |  |  |  | IC50 (ALDH1A3): > 100 µM |
| CCCc1cc(=O)oc2cc3oc(C)c(C)c3cc12 [Compound 7] | > 100 |  |  | > 100 |  |
| Cc1oc2cc3oc(=O)c4c(c3cc2c1C)CCC4 [Compound 11] | > 100 |  |  |  |  |
| C/C(=N\O)c1cc2cc(Br)ccc2oc1=O [Compound 36] | > 100 |  | competitively | > 100 | IC50 (ALDH1B1): > 100 µM; IC50 (ALDH1A2): > 100 µM |
| COC(=O)C(C)Oc1ccc2c(C)cc(=O)oc2c1 (centres unmarked) [Compound 4] | > 100 | > 100 | competitive | > 100 | IC50 (ALDH1A3): > 100 µM; IC50 (ALDH1B1): > 100 µM; IC50 (ALDH1A2): > 100 µM |
| O=c1c(-c2ccc(O)cc2)coc2cc(O[C@@H]3O[C@H](CO)[C@@H](O)[C@H](O)[C@H]3O)ccc12 [Daidzin, daidzin, reference compound] | > 100 | > 100 |  |  |  |
| Cc1cc(=O)oc2cc(OCC#N)ccc12 [Compound 30] |  |  | noncompetitive (mixed-type) |  | Mode of inhibition of ALDH1A1 versus varied NAD+ (ALDH1A1 [4]): noncompetitive |
| CCN(CC)c1ccc2c(C)cc(=O)oc2c1 [Compound 32] | > 100 |  |  |  | IC50 (ALDH1A3): > 100 µM; Mode of inhibition of ALDH1A1 versus varied acetaldehyde (ALDH1A1 [4]; 1 mM NAD+, varied acetaldehyde): noncompetitive; Mode of inhibition of ALDH1A1 versus varied NAD+ (ALDH1A1 [4]): noncompetitive; IC50 (ALDH1B1): > 100 µM; Fold selective for ALDH1A1 versus ALDH1A2 (ALDH1A1 [3]): 10 fold; inhibition at 10 µM (ALDH1A1 [3]): ~85% |
